Laboratory results published in US20230364057A1, “BACTERIAL DNA GYRASE INHIBITORS AND METHODS OF USE THEREOF” (THE FLORIDA INTERNATIONAL UNIVERSITY BOARD OF TRUSTEES, priority 2022, published 2023).
Several values for one entry are separate records, joined by “and”; a condition that tells them apart may be missing. Identical values can stand only once. Entries after “also recorded” stand apart in the source; their conditions may differ.

How the values were obtained:
Mtb gyrase = Mtb gyrase (Mycobacterium tuberculosis (strain ATCC 25618 / H37Rv), UniProt P9WG45+P9WG47); experiment: Mtb gyrase mediated DNA cleavage assay; type: biochemical; settings: pBR322, 50-100 µM
Procedure: The IC50 against E. coli (A) and Mtb (C) gyrase were determined using the gel-based gyrase inhibition assays. The gyrase mediated DNA cleavage assays (B and D) were performed using pBR322. (A) 229 inhibits E. coli gyrase. Lane 1, rx pAB1. […] Lane 1, rx pAB1. […] 100 µM of CPDs were used. Symbols rx, nk, In, and sc represent relaxed, nicked, linear, and supercoiled DNA, respectively.

[1] = system: NCI panel of 60 cancer cell lines; settings: up to 1 mM; results of NCI DTP; cited from earlier work
in vitro [2] = settings: human
E. coli DNA gyrase [3] = biological target: T1, E. coli DNA gyrase (Escherichia coli (strain K12), UniProt P0AES4+P0AES6); experiment: Agarose gel-based DNA gyrase inhibition assay; type: biochemical
Procedure: 100 ng of DNA gyrase was used to supercoil the rx pAB1 in the presence of different concentrations of a gyrase inhibitor. […] Samples were analyzed by electrophoresis in 1% w/v agarose gels followed by ethidium bromide staining and photographed under UV light.

Mtb = Mtb whole cell assay (% inhibition, MIC); type: cell-based, Mycobacterium tuberculosis; settings: Mycobacterium tuberculosis
E. coli DNA gyrase [4] = biological target: T1, E. coli DNA gyrase; experiment: biochemical; type: biochemical
E. coli (ATCC 25922) = experiment: Minimum inhibitory concentration, broth microdilution
Procedure: Antibacterial minimum inhibitory concentrations (MICs) were obtained from three independent experiments using broth microdilution methods in 96-well plates according to Clinical and Laboratory Standards Institute guidelines. Cells were culture from singles colonies in MHIIB medium for 24 h at 37° C. in agitation (200 RPM). The cultures were then diluted using the same media to reach an OD600 of 0.1. Then, 50 µL of the diluted cultures were added to the plates holding 50 µL of serially diluted compounds in MHIIB. The plates were incubated at 37° C. for 20 h. The starting inoculum was fixated to 10^5 colony-forming units per ml.

in vitro [5] = settings: mouse
CDF1 mice = settings: 800 mg/kg, 5 days, results of NCI DTP; cited from earlier work
E. coli DNA gyrase [6] = biological target: T1, E. coli DNA gyrase; experiment: DNA gyrase mediated DNA cleavage assay; type: biochemical; settings: pBR322
Outline: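 Supercoiled pBR322 (250 ng) incubated with 50 nM E. coli gyrase, 1.75 mM ATP and 200 µM compound in Tris-HCl/KCl/MgCl2/DTT/BSA/glycerol buffer, 37° C, 15 min. Complexes trapped with SDS and proteinase K (37° C, 1 h); cleavage products resolved on ethidium-stained agarose gel.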

M. abscessus = experiment: MIC against M. abscessus; type: cell-based, Mycobacterium abscessus; settings: Mycobacteroides abscessus
S. aureus (ATCC 14775) = experiment: Minimum inhibitory concentration, broth microdilution; settings: Staphylococcus aureus, ATCC14775, read-out: MIC (µM) Sa
Mtb DNA gyrase = Mtb DNA gyrase (Mycobacterium tuberculosis (strain ATCC 25618 / H37Rv), UniProt P9WG45+P9WG47); experiment: Mtb DNA gyrase inhibition assay (gel-based); type: biochemical
Outline: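 Supercoiling by 100 ng Mtb gyrase of 400 ng relaxed pAB1 in buffer with 1.75 mM ATP, pH 7.5, across inhibitor concentrations. Reactions ran 15 min at 37° C, stopped with SDS/EDTA. Products resolved on 1% agarose, ethidium bromide-stained; IC50 determined from gels.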

C[n+]1c(-c2ccc(C=NNC(=O)c3ccc(C(=O)NN=Cc4ccc(-c5cn6ccccc6[n+]5C)cc4)cc3)cc2)cn2ccccc21 [Compound 229]
Mtb gyrase-mediated DNA nicking and double-stranded breaks (Mtb gyrase): significantly enhances the gyrase-mediated DNA nicking and double-stranded breaks | cytotoxicity against the NCI panel of 60 cancer cell lines [1]: no cytotoxicity | IC50 (in vitro [2]): > 200 µM | inhibition of E. coli DNA gyrase activities (E. coli DNA gyrase [3]; 50 µM of compounds): completely inhibited | inhibition of E. coli DNA gyrase activities (E. coli DNA gyrase [3]; 200 µM of compounds): completely inhibited | IC50 (E. coli DNA gyrase [3]; gel-based, read-out: IC50 against E. coli DNA gyrase): 16 µM | MIC (Mtb): 7.1 µM | inhibition of E. coli DNA gyrase activities (E. coli DNA gyrase [4]): inhibits | MIC (µM) Ec (E. coli (ATCC 25922); E. coli strain ATCC25922): 12.5 µM | MIC (E. coli (ATCC 25922); Escherichia coli, ATCC25922, read-out: MIC (µM) Ec, E. coli strain ATCC25922): 6.25 to 12.5 µM | IC50 (in vitro [5]): > 200 µM | survival (CDF1 mice): 100% | E. coli DNA gyrase-mediated DNA breaks and nicking (E. coli DNA gyrase [6]): enhances the E. coli gyrase-mediated DNA nicking; also recorded: induces DNA nicking | MIC (M. abscessus): 10.1 µM | MIC (S. aureus (ATCC 14775)): > 200 µM | inhibition of Mtb DNA gyrase activities (Mtb DNA gyrase): potently inhibits | IC50 (Mtb DNA gyrase; Table 10, read-out: IC50 (µM) Mtb gyrase): ~2.6 µM and 2.6 µM
